Measured values taken from patent US4345938A, “Herbicidal 2-haloacetanilides” (Monsanto Company, priority 1980, dated 1982).

How the values were obtained:
Type in all cases: in vivo
[1] = system: Velvetleaf; test: Pre-emergent herbicidal test, Velvetleaf; further: ranges in brackets are in %
From the text: (§1) A good grade of top soil is placed in aluminum pans and compacted to a depth of three-eights to one-half inch from the top of the pan. On the top of the soil is placed a number of seeds or vegetative propagules of various plant species. The soil required to level fill the pans after seeding or adding vegetative propagules is weighted into a pan. The soil and a known amount of the active ingredient applied in a solvent or as a wettable powder suspension are thoroughly mixed, and used to cover the prepared pans. After treatment, the pans are moved into a greenhouse bench where they are watered by subirrigation as needed to give adequate moisture for germination and growth.
(§2) Approximately 2 weeks after seeding and treating, the plants were observed and the results recorded. The herbicidal rating was obtained by means of a fixed scale based on the percent injury of each plant species. The ratings are defined as follows: […]

[2] = system: Lambsquarters; test: Pre-emergent herbicidal test, Lambsquarters; further: ranges in brackets are in %
From the text: as §1, §2

[3] = system: Smartweed; test: Pre-emergent herbicidal test, Smartweed; further: ranges in brackets are in %
From the text: as §1, §2

[4] = system: Yellow Nutsedge; test: Pre-emergent herbicidal test, Yellow Nutsedge; conditions: Table I; further: ranges in brackets are in %
From the text: as §1, §2

[5] = system: Quackgrass; test: Pre-emergent herbicidal test, Quackgrass; conditions: Table I; further: ranges in brackets are in %
From the text: as §1, §2

[6] = system: Downy Brome; test: Pre-emergent herbicidal test, Downy Brome; further: ranges in brackets are in %
From the text: as §1, §2

[7] = system: Barnyardgrass; test: Pre-emergent herbicidal test, Barnyardgrass; further: ranges in brackets are in %
From the text: as §1, §2

[8] = system: Soybean; test: Pre-emergent herbicidal test, Soybean; conditions: Table II; further: ranges in brackets are in %
From the text: as §1, §2
(§3) The compounds were further tested by utilizing the above procedure on the following plant species: […]

[9] = system: Wheat; test: Pre-emergent herbicidal test, Wheat; conditions: Table II; further: ranges in brackets are in %
From the text: as §1, §2, §3

[10] = system: Rice; test: Pre-emergent herbicidal test, Rice; conditions: Table II; further: ranges in brackets are in %
From the text: as §1, §2, §3

[11] = system: Sorghum; test: Pre-emergent herbicidal test, Sorghum; conditions: Table II; further: ranges in brackets are in %
From the text: as §1, §2, §3

[12] = system: Panicum Spp.; test: Pre-emergent herbicidal test, Panicum Spp.; further: ranges in brackets are in %; conditions: Table II
From the text: as §1, §2, §3

[13] = system: Echinochloa crus-galli; test: Upland seeded rice greenhouse test, barnyardgrass
Experimental: (§4) In another comparative test in the greenhouse, the compound of Example 2 and Compound B were tested in Upland seeded rice. […] In contrast, Compound A, (a commercial rice herbicide), required 0.14 kg/ha (0.125 lb/A) to selectively control the same weed with rice safety also maintained at 1.12 kg/ha resulting in a selectivity factor of at least 8, i.e., less than one-half that of the compound of Example 2.

[14] = system: Upland seeded rice; test: Upland seeded rice greenhouse test, rice safety; conditions: in vivo
Experimental: as §4

[15] = system: Barnyardgrass; test: Sugarbeet greenhouse test, BYG; conditions: in sugarbeets
From the text: (§5) In the discussion of data below, occasional reference is made to herbicide application rates symbolized as "GR15 " and "GR85 "; these rates are given in kilograms per hectare (kg/ha) which are convertible into pounds per acre (lbs/A) by dividing the kg/ha rate by 1.12.
(§6) A further guide to the effectiveness of a chemical as a selective herbicide is the "selectivity factor" ("SF") for a herbicide in given crops and weeds. The selectivity factor is a measure of the relative degree of crop safety and weed injury and is expressed in terms of the GR15 /GR85 ratio, i.e., the GR15 rate for the crop divided by the GR85 rate for the weed, both rates in kg/ha (lb/A.)
(§7) In further tests in the greenhouse, the compound of Example 2 was tested for its activity against annual weeds in sugarbeets at test rates within the range of 0.07 to 1.12 kg/ha (0.0625 to 1.0 lb/A). The GR15 and GR85 rates for sugarbeets and the various weeds are shown in Table VI; the selectivity factors for the herbicide against the weeds in sugarbeets are shown in parentheses below the weeds; "NS" means non-selective within the test limits. The following abbreviations are used in the table: barnyardgrass (BYG), wild oats (WO), downy brome (DB); redroot pigweed (RRP), blackgrass (BG), large crabgrass (LCG) and yellow foxtail (YFT).

[16] = system: Downy Brome; test: Sugarbeet greenhouse test, DB; conditions: in sugarbeets
From the text: as §5, §6, §7

[17] = system: large crabgrass; test: Sugarbeet greenhouse test, LCG; conditions: in sugarbeets
From the text: as §5, §6, §7

`CCCCOc1cccc(CC)c1N(CC)C(=O)CCl` [Example 2, N-ethyl-2'-n-butoxy-6'-ethyl-2-chloroacetanilide] was tested, and the “Rating, Velvetleaf” value ([1]; Table I, 5.6 kg/h) was 0 (0-24), the “Rating, Velvetleaf” value ([1]; Table I, 11.2 kg/h) was 1 (25-49) and the “Rating, Velvetleaf” value ([1]; Table II, 0.01 kg/h) was 0 (0-24). For the same molecule, the “Rating, Velvetleaf” value ([1]; Table II, 0.06 kg/h) was 0 (0-24), the “Rating, Velvetleaf” value ([1]; Table II, 0.28 kg/h) was 0 (0-24) and the “Rating, Velvetleaf” value ([1]; Table II, 1.12 kg/h) was 0 (0-24). For the same molecule, the “Rating, Velvetleaf” value ([1]; Table II, 5.6 kg/h) was 1 (25-49), the “Rating, Lambsquarters” value ([2]; Table I, 5.6 kg/h) was 3 (75-100) and the “Rating, Lambsquarters” value ([2]; Table I, 11.2 kg/h) was 3 (75-100). The “Rating, Lambsquarters” value ([2]; Table II, 0.01 kg/h) was 0 (0-24), the “Rating, Lambsquarters” value ([2]; Table II, 0.06 kg/h) was 0 (0-24) and the “Rating, Lambsquarters” value ([2]; Table II, 0.28 kg/h) was 0 (0-24). The “Rating, Lambsquarters” value ([2]; Table II, 1.12 kg/h) was 2 (50-74), the “Rating, Lambsquarters” value ([2]; Table II, 5.6 kg/h) was 3 (75-100) and the “Rating, Smartweed” value ([3]; Table I, 5.6 kg/h) was 3 (75-100). For the same molecule, the “Rating, Smartweed” value ([3]; Table I, 11.2 kg/h) was 3 (75-100), the “Rating, Smartweed” value ([3]; Table II, 0.01 kg/h) was 0 (0-24) and the “Rating, Smartweed” value ([3]; Table II, 0.06 kg/h) was 0 (0-24). The “Rating, Smartweed” value ([3]; Table II, 0.28 kg/h) was 0 (0-24), the “Rating, Smartweed” value ([3]; Table II, 1.12 kg/h) was 2 (50-74) and the “Rating, Smartweed” value ([3]; Table II, 5.6 kg/h) was 3 (75-100). For the same molecule, the “Rating, Yellow Nutsedge” value ([4]; 5.6 kg/h) was 3 (75-100), the “Rating, Yellow Nutsedge” value ([4]; 11.2 kg/h) was 3 (75-100) and the “Rating, Quackgrass” value ([5]; 5.6 kg/h) was 3 (75-100). For the same molecule, the “Rating, Quackgrass” value ([5]; 11.2 kg/h) was 3 (75-100), the “Rating, Downy Brome” value ([6]; Table I, 5.6 kg/h) was 3 (75-100) and the “Rating, Downy Brome” value ([6]; Table I, 11.2 kg/h) was 3 (75-100). For the same molecule, the “Rating, Downy Brome” value ([6]; Table II, 0.01 kg/h) was 0 (0-24), the “Rating, Downy Brome” value ([6]; Table II, 0.06 kg/h) was 1 (25-49) and the “Rating, Downy Brome” value ([6]; Table II, 0.28 kg/h) was 3 (75-100). The “Rating, Downy Brome” value ([6]; Table II, 1.12 kg/h) was 3 (75-100), the “Rating, Downy Brome” value ([6]; Table II, 5.6 kg/h) was 3 (75-100) and the “Rating, Barnyardgrass” value ([7]; Table I, 5.6 kg/h) was 3 (75-100). The “Rating, Barnyardgrass” value ([7]; Table I, 11.2 kg/h) was 3 (75-100), the “Rating, Barnyardgrass” value ([7]; Table II, 0.01 kg/h) was 1 (25-49) and the “Rating, Barnyardgrass” value ([7]; Table II, 0.06 kg/h) was 3 (75-100). For the same molecule, the “Rating, Barnyardgrass” value ([7]; Table II, 0.28 kg/h) was 3 (75-100), the “Rating, Barnyardgrass” value ([7]; Table II, 1.12 kg/h) was 3 (75-100) and the “Rating, Barnyardgrass” value ([7]; Table II, 5.6 kg/h) was 3 (75-100). For the same molecule, the “Rating, Soybean” value ([8]; 0.01 kg/h) was 0 (0-24), the “Rating, Soybean” value ([8]; 0.06 kg/h) was 0 (0-24) and the “Rating, Soybean” value ([8]; 0.28 kg/h) was 0 (0-24). The “Rating, Soybean” value ([8]; 1.12 kg/h) was 0 (0-24), the “Rating, Soybean” value ([8]; 5.6 kg/h) was 1 (25-49) and the “Rating, Wheat” value ([9]; 0.01 kg/h) was 0 (0-24). The “Rating, Wheat” value ([9]; 0.06 kg/h) was 0 (0-24), the “Rating, Wheat” value ([9]; 0.28 kg/h) was 1 (25-49) and the “Rating, Wheat” value ([9]; 1.12 kg/h) was 2 (50-74). The “Rating, Wheat” value ([9]; 5.6 kg/h) was 3 (75-100), the “Rating, Rice” value ([10]; 0.01 kg/h) was 0 (0-24) and the “Rating, Rice” value ([10]; 0.06 kg/h) was 0 (0-24). For the same molecule, the “Rating, Rice” value ([10]; 0.28 kg/h) was 1 (25-49), the “Rating, Rice” value ([10]; 1.12 kg/h) was 3 (75-100) and the “Rating, Rice” value ([10]; 5.6 kg/h) was 3 (75-100). The “Rating, Sorghum” value ([11]; 0.01 kg/h) was 0 (0-24), the “Rating, Sorghum” value ([11]; 0.06 kg/h) was 0 (0-24) and the “Rating, Sorghum” value ([11]; 0.28 kg/h) was 1 (25-49). For the same molecule, the “Rating, Sorghum” value ([11]; 1.12 kg/h) was 3 (75-100), the “Rating, Sorghum” value ([11]; 5.6 kg/h) was 3 (75-100) and the “Rating, Panicum Spp.” value ([12]; 0.01 kg/h) was 0 (0-24). The “Rating, Panicum Spp.” value ([12]; 0.06 kg/h) was 1 (25-49), the “Rating, Panicum Spp.” value ([12]; 0.28 kg/h) was 3 (75-100) and the “Rating, Panicum Spp.” value ([12]; 1.12 kg/h) was 3 (75-100). The “Rating, Panicum Spp.” value ([12]; 5.6 kg/h) was 3 (75-100), the “rate for selective control of Echinochloa crus-galli” value ([13]; Upland seeded rice, greenhouse) was 0.064 kg/ha and the “selectivity factor, Echinochloa crus-galli in Upland seeded rice” value ([13]; Upland seeded rice, greenhouse) was “at least 17.5”. The control of barnyardgrass ([13]; upland-seeded rice test, 0.0087 kg/ha (0.0078 lb/A)) was 20%, the “rate at which rice safety is maintained” value [14] was at least 1.12 kg/ha and the “GR85 Rate, BYG” value [15] was under 0.07 Kg/Ha. For the same molecule, the “selectivity factor, BYG” value [15] was over 8.0, the “GR85 Rate, DB” value [16] was 0.14 Kg/Ha and the “selectivity factor, DB” value [16] was 4.0. For the same molecule, the “GR85 Rate, LCG” value [17] was 0.07 Kg/Ha and the “selectivity factor, LCG” value [17] was 8.0.
